Measurements: patent US20080081781A1, “Methods and compositions for the treatment of metabolic syndrome” (priority 2004, published 2008)

Legend:
[1] = system: hyperlipidemia Chinese hamster; experiment: Lipid lowering effects of berberine in hyperlipidemia Chinese hamster; format: in vivo; conditions: for LDL reduced by: after the 10 day treatment; for LDL Protein / Triglycerides / Cholesterol: serum, ten days; for LDL Protein: saline control 2.8 ± 0.9; for Triglycerides: saline control 3.6 ± 0.4; for Cholesterol: saline control 6.4 ± 1.0
Experimental: Two weeks prior to treatment, female Chinese hamsters purchased from the National Institute of Vaccine and Serum research (Beijing, China) were switched to a high fat and cholesterol diet (10% lard, 10% egg yolk powder and 1% cholesterol). After two weeks, groups of 14 hamsters were given either 10 mg/kg/day of berberine through peritoneal injection, 20 mg/kg/day of berberine through peritoneal injection, 50 mg/kg/day, 100 mg/kg/day of berberine orally or saline for ten days. Serum cholesterol, triglyceride and LDL levels were measured after 4 h fasting before, during and after the course of the treatment. Four hours after the course of the treatment, the animals were sacrificed and their livers removed for analysis.

[2] = system: high fat high cholesterol (HFHC) diet rats; experiment: Combination treatment with berberine and simvastatin in HFHC diet rats (Table 8); format: in vivo, rat; conditions: oral, after 25 days, daily dose berberine 100 mg/kg, simvastatin 25 mg/kg, combination 100 + 25, average ± standard error
Experimental: Rats were fed a high fat high cholesterol (HFHC) diet for 10 days, and then divided into groups of seven. The rats were then administered berberine or simvastatin, or a combination of berberine and simvastatin orally for 25 days. After 25 days, serum cholesterol, triglyceride and LDL-c levels were measured. […] The combination of simvastatin, and berberine lowered the cholesterol, triglyceride and LDL-c levels further than either alone.

SREBP2 = experiment: Precursor and mature forms of SREBP2 in HepG2 cells (Western blot); format: cell-based, human; conditions: 8 hours
Excerpt: Total cell lysates from untreated cells or cells treated with either berberine or GW707 were then harvested and analyzed by Western blot.

LDLR mRNA [3] = experiment: LDLR mRNA stability after actinomycin D in HepG2 cells (Northern blot); format: cell-based, human; conditions: HepG2, berberine 15 hours then actinomycin D 5 μg/ml
Experimental: HepG2 cells were cultured and then left alone or treated with berberine for 15 hours. After 15 hours, actinomycin D (5 μg/ml) was added to cells at 0, 20, 40, 60, 90, 120, or 150 minutes. Total mRNA was isolated and analyzed by Northern blot for the amount of LDLR mRNA. […] In contrast, the mRNA stability of HMG-CoA reductase was not altered by berberine.

in vivo = experiment: in vivo; parameters: species or system canine (beagle); conditions: beagle, dog
Experimental: In parallel animal model studies, four canine (beagle) subjects were given 45 mg/kg of berberine orally. Serum concentrations of the drug were determined by HPLC at 2 and 3 hours after administration. […] After the berberine had cleared the system, the same dog was then administered 700 mg/kg of berberine and blood samples were taken 2, 3, 5, 7, 9 and 24 hours after administration resulting in concentrations of 21.51, 44.89, 49.54, 36.35, 27.83, and 16.01 ηg/ml respectively.

PKC = PKC activity in rat liver (PepTag assay); format: in vivo; conditions: berberine treated rats
Experimental: The livers were dissected and stored in liquid nitrogen for RNA extraction, real-time RT-PCR and PKC activity assay. Total blood samples were also collected to assay fasting blood glucose and serum insulin levels. The insulin levels were analyzed using radio-immunoassay (Linco Research, St Charles, Mo.). The insulin sensitivity indexes (ISI) were calculated according to the formula: 10^4/(fasting serum insulin X fasting blood glucose) (Hanson, Am. J. Epidemiol. 15 1(2), 190-198 (2000)). The insulin level and ISI of normal rats were also determined for comparison. […] It also elevated the fasting blood glucose from 7 to 12.8 mmol/L (P<0.001).
PKC activity was analyzed using the PepTag® Assay for Non-Radioactive Detection of Protein Kinase-C or cAMP-Dependent Protein Kinase kit (Promega) according to the protocol. Briefly, after homogenization and partial purification, […] was mixed with 5 μl of PepTag® Cl peptide (specific substrate of PKC), 5 μl of reaction buffer and 5 μl of PKC activator solution in a 25 μl reaction system. […] They were transferred to a 96-well plate and quantified using densitometry according to the supplier's protocol. The catalytic activity of total PKC of a specific sample was expressed as pmol/min/mg, representing the number of picomoles of phosphate transferred to the substrate per minute per milligram of proteins of the sample.

InsR gene promoter = experiment: InsR promoter activity, pGL3-1.5kIRP transfected HepG2 cells; format: cell-based, human; conditions: pGL3-1.5kIRP transfected HepG2, 10 μg/ml, 8 h
Experimental: The InsR promoter luciferase gene fusion plasmid (pGL3-1.5kIRP) was kindly provided by Dr. Araki E of the Graduate School of Medical Sciences, Kumamoto University, Honjo, Kumamoto, Japan.
After overnight incubation, the cells were treated with DMSO as the solvent control or with 0, 1, 2.5, 5, 7.5 and 10 μg/ml berberine for 8 h. Cell lysates were prepared and luciferase activities were measured using the Luciferase Reporter Gene Assay (Roche Applied Science). The experiment was repeated 4 times.

InsR = InsR expression on peripheral blood lymphocytes of patients (flow cytometry); format: in vivo, human; conditions: patients after two months of berberine
Excerpt: Peripheral blood lymphocytes (PBL) were collected for InsR expression analysis. InsR protein expressed on the surface of peripheral blood lymphocytes were stained with monoclonal antibody against human insulin receptor (Pharmagen, San Diego, Calif.) and analyzed in a flow cytometer (BD and Company, San Jose, Calif.)

LDLR mRNA [4] = experiment: Screen of 700 compounds from Chinese herbs for LDLR mRNA in HepG2 cells (semi-quantitative RT-PCR); format: cell-based, human; conditions: HepG2, 24 hours
Experimental: In exemplary experiments, cells from a human hepatoma-derived cell line, HepG2, were treated for 24 hours with 700 compounds isolated from Chinese herbs. RNA was then isolated from the cells and analysis of LDLR mRNA was determined using semi-quantitative RT-PCR assays. […] Treating HepG2 cells cultured in medium containing 0.5% lipoprotein-depleted fetal bovine serum or serum supplemented with sterols and berberine caused time dependent increases in the expression of LDLR mRNA.

[5] = 10 mg/kg/day peritoneal injection
[6] = 20 mg/kg/day peritoneal injection

Question: With `COc1ccc2cc3[n+](cc2c1OC)CCc1cc2c(cc1-3)OCO2` [berberine] as the molecule, how does the “LDL reduced by” value ([1]; 50 mg/kg/day) read?
Answer: 26%

Question: And the “LDL reduced by” value ([1]; 100 mg/kg/day)?
Answer: 42%

Question: What about the “LDL Protein” value [1, 5] of the same molecule?
Answer: 1.6 ± 0.3

Question: And the Triglycerides [1, 5]?
Answer: 2.6 ± 0.3

Question: And the Cholesterol [1, 5]?
Answer: 4.1 ± 0.7

Question: What about the “LDL Protein” value [1, 6] of the same molecule?
Answer: 0.9 ± 0.1

Question: And the Triglycerides [1, 6]?
Answer: 1.7 ± 0.5

Question: And the Cholesterol [1, 6]?
Answer: 3.2 ± 0.5

Question: And the “LDL Protein” value ([1]; 50 mg/kg/day (orally))?
Answer: 2.07 ± 0.9

Question: What about the Cholesterol ([1]; 50 mg/kg/day (orally)) of the same molecule?
Answer: 3.5 ± 0.5

Question: And the “LDL Protein” value ([1]; 100 mg/kg/day oral)?
Answer: 1.2 ± 0.2

Question: What about the Triglycerides ([1]; 100 mg/kg/day oral) of the same molecule?
Answer: 1.9 ± 0.4

Question: And the Cholesterol ([1]; 100 mg/kg/day oral)?
Answer: 3.8 ± 0.7

Question: What about the LDL-c [2] of the same molecule?
Answer: 1.2 ± 0.2 mmol/L

Question: And the “Total Cholesterol” value [2]?
Answer: 3.8 ± 0.5 mmol/L

Question: And the Triglyceride [2]?
Answer: 2.1 ± 0.3 mmol/L

Question: What about the “amount of the mature form of SREB-2” value (SREBP2) of the same molecule?
Answer: no effect

Question: What about the “prolongation of turnover rate of LDLR transcript” value (LDLR mRNA [3]) of the same molecule?
Answer: approximately threefold

Question: And the concentration at 2 hours (in vivo; 280 mg/kg)?
Answer: 31400 ng/mL

Question: What about the serum concentration (in vivo; 280 mg/kg, 3 hours) of the same molecule?
Answer: 22.6 ηg

Question: And the concentration at 2 hours (in vivo; 700 mg/kg)?
Answer: 21.5 ng/mL

Question: And the concentration at 3 hours (in vivo; 700 mg/kg)?
Answer: 44.9 ng/mL

Question: What about the concentration at 5 hours (in vivo; 700 mg/kg) of the same molecule?
Answer: 49.5 ng/mL

Question: And the concentration at 7 hours (in vivo; 700 mg/kg)?
Answer: 36.4 ng/mL

Question: And the concentration at 9 hours (in vivo; 700 mg/kg)?
Answer: 27.8 ng/mL

Question: What about the concentration at 24 hours (in vivo; 700 mg/kg) of the same molecule?
Answer: 16 ng/mL

Question: And the “activity of PKC in the livers” value (PKC)?
Answer: increased activity of PKC

Question: What about the “elevation of Luc mRNA level” value (InsR gene promoter) of the same molecule?
Answer: 2.5 fold

Question: What about the “% of PBL expressing InsR on the surface” value (InsR) of the same molecule?
Answer: significantly increased

Question: What about the “LDLR expression among 700 compounds tested” value (LDLR mRNA [4]) of the same molecule?
Answer: greatest increase in LDLR expression
